# Measurements: patent publication US11230711B2, “Inhibition of LET7I as a means to enhance the protective effect of progesterone against stroke” (UNIVERSITY OF NORTH TEXAS HEALTH SCIENCE CENTER, priority 2017, dated 2022)
# Assays:
# [1] = tested on: primary cortical astrocytes; assay: BDNF release from primary cortical astrocytes, BDNF in situ ELISA; type: cell-based, mouse
# Description: To define the amount of endogenous BDNF released, we will modify the ELISA in situ protocol developed by Promega. A 96-well Nunc MaxiSorp surface polystyrene flat-bottom immunoplate was precoated with an anti-BDNF monoclonal antibody [diluted 1:1,000 in coating buffer (25 mM sodium bicarbonate and 25 mM sodium carbonate, pH 9.7)]. After rinsing off unbound antibody with TBS-T buffer [20 mM Tris-HCl (pH 7.6), 150 mM NaCl and 0.05% (v/v) Tween-20] and blocking the plate to minimize nonspecific binding, the culture media was added to the plate for 2 hrs to equilibrate the cell growth environment. […] The amount of specifically bound polyclonal antibody was then detected through the use of the anti-IgY-horseradish peroxidase (HRP) tertiary antibody (final concentration=0.5 μg/mL), which when exposed to the chromogenic substrate (TMB reagent; Promega), changes color in proportion to the amount of BDNF present in the sample. The color intensity was quantified by measuring the absorbance at 450 nm with a Viktor3 ELISA plate reader (Perkin Elmer). […] The amount of specifically bound polyclonal antibody was then detected through the use of the anti-IgY-horseradish peroxidase (HRP) tertiary antibody, which when exposed to the chromogenic substrate (TMB reagent, Promega), changes color in proportion to the amount of BDNF present in the sample. […]
# let-7i = let-7i expression in the penumbra of the ischemic brain after MCAo (qRT-PCR); type: in vivo, mouse; settings: MCAo mice; day 7 up to 14 days following stroke; FIG. 11E
# Excerpt: (FIG. 11A) Representative immunoblots probed for Pgrmc1, pro- and mature-BDNF. (FIG. 11B) Quantitation graph of relative Pgrmc1 protein ratio to Gapdh (n=4-5 per group). (FIG. 11C) Quantitation graph of relative pro-BDNF protein ratio to Gapdh (n=4-5 per group). (FIG. 11D) Quantitation graph of relative mature BDNF protein ratio to Gapdh (n=4-5 per group). (FIG. 11E) Quantitation graph of relative let-7i expression in ischemic brain (n=4-5 per group). n.s: not significant, ** P<0.01 and *P<0.05 compared to sham, and #P<0.05 compared to P4+scrambled. Data are presented as the mean±SEM.
# For miRNA expression measurements, total RNA (10 ng) was reverse transcribed into cDNA in a total volume of 15 μl using the microRNA cDNA Archive Kit (ThermoFisher Scientific) according to the manufacturer's instructions. The reaction mixture contained water, 2× quantitative PCR Master Mix (Eurogentec), and 20× Assay-On-Demand for each target gene. A separate reaction mixture was prepared for the endogenous control, U6. The reaction mixture was aliquoted in a 96-well plate, and cDNA added to give a final volume of 20 μl. Each sample was analyzed in triplicate. The comparative cycle threshold (Ct) method (2^−ΔΔCt) was used to calculate the relative changes in target miRNA expression.
# All mice were first ovariectomized to deplete endogenous ovarian hormone levels. […]
smiles,measurement,setting,value
"CC(=O)[C@H]1CC[C@H]2[C@@H]3CCC4=CC(=O)CC[C@]4(C)[C@H]3CC[C@]12C [P4, progesterone]",BDNF release in P4-treated cultures,"[1]; astrocyte cultures, control cultures as little as 2 pg/ml",~250 pg/mL
same,P4-induced BDNF release after OGD,"[1]; primary cortical astrocytes exposed to one-hour OGD, FIG. 8B",compromised
same,stroke-induced increase in let-7i expression in the penumbra,let-7i,did not attenuate
